Measured values as given in patent publication US9429582B2, “Tyrosine-phosphorylated WBP2, a novel cancer target and biomarker” (National University of Singapore, priority 2010, dated 2016).
Entries after “also recorded” stand apart in the source; their conditions may differ.

What was measured:
ERα = test: Immunoblot of ERα expression in drug-treated WBP2-Y192-231E mutant-expressing MCF7; assay type: cell-based, human; settings: Y192-231E-expressing MCF7; 2 μM Tam and/or 15 μM FH535; day 2-4 post-treatment
Procedure: For cells co-transfected ERE-luciferase, they were either left alone or stimulated with 50 ng/ml Wnt3a ligand for 16 hrs. TCF/ERα luciferase activities in various conditions were then assayed. **P<0.01, ***P<0.001, Student's t-test (2-tailed). […] Cell numbers were measured.
Their expression levels were quantified in three independent experiments and the averages were presented relative to actin. […] For cells co-transfected ERE luciferase, they were either left alone or stimulated with 50 ng/ml Wnt3a ligand for 16 hrs. TCF(C)/ER[…](D) luciferase activities in various conditions were then assayed and analyzed in relative to untreated vector control. **P<0.01, ***P<0.001, Student's t-test (2-tailed). […] Cell numbers were measured daily and compared in relative to vehicle treated vector-expressing cells on Day 0. […] Cell numbers were measured and compared in relative to vehicle-treated cells. […] Cell numbers were measured on day 2 and day 4 and compared in relative to vehicle-treated control at each day (Top Panel). These treated cells were harvested for IB analysis with antibodies indicated (Bottom Panel).
First, we exposed WBP2 phospho-mimic expressing MCF7 cells to serial concentrations of fulvestrant (0.1 nM, 1 nM, 10 nM, 100 nM and 1 μM) and probed for ERα expression to determine the effective working concentration. […] Next, we compared the growth and proliferation of WBP2 phospho-mimic mutant expressing MCF7 in the presence of 100 nM fulvestrant or 15 μM FH535.

[1] = system: WBP2-Y192-231E mutant-expressing MCF7; test: Cell proliferation (MTS / cell numbers) of WBP2-Y192-231E mutant-expressing MCF7; assay type: cell-based, human
Procedure: A: Whole cell lysates from vector, WBP2-WT, WBP2-Y192-231E mutant and WBP2-Y192-231F mutant expressing MCF7 or Y192-231E mutant expressing MCF7 with WBP2 knockdown were used for IB analysis with antibodies indicated. B: Vector, WBP2-WT, WBP2-Y192-231E mutant or WBP2-Y192-231F mutant-expressing MCF7 were co-transfected with TOPFlash (top panel) or ERE-Luciferase (bottom panel) reporter construct. For cells co-transfected ERE-luciferase, they were either left alone or stimulated with 50 ng/ml Wnt3a ligand for 16 hrs. TCF/ERα luciferase activities in various conditions were then assayed. **P<0.01, ***P<0.001, Student's t-test (2-tailed). C: Vector or WBP2-Y192-231E mutant-expressing MCF7 were treated with indicated concentrations of Tamoxifen(Tam) and/or FH535. Cell numbers were measured. D: Whole cell lysates from WBP2-Y192-231E mutant-expressing MCF7 treated with 2 μM Tam and/or 15 μM FH5353 were harvested at day 2-4 post-treatment and used for IB analysis with antibodies indicated.
Effect of knockdown of E2F1 and E2F3 on MCF7 cells overexpressing WBP2-Y192-231E. A. MCF7 cells expressing WBP2-Y192-231E were transfected with indicated siRNAs and knockdown efficiency was confirmed using western blotting. B. Cells were co-transfected with indicated siRNAs and E2F reporter plasmid and harvested for luciferase assay after 48 hours. Luciferase readings were normalized against constitutive TK promoter renilla luciferase readings. C. Cells were transfected with indicated siRNAs and BrdU incorporation assay was performed. Percentages of BrdU positive cells relative to control siRNA treated cells were plotted as bar charts. D. Cells were transfected with indicated siRNAs. MTS assay was performed on day 3. Percentages of cell proliferation relative to control siRNA treated cells were plotted as bar charts.
Whole cell lysates from vector, WBP2-WT, WBP2-Y192-231E mutant and WBP2-Y192-231F mutant expressing MCF7 (A) or Y192-231E mutant expressing MCF7 with WBP2 knockdown (B) were used for IB analysis with antibodies indicated. Their expression levels were quantified in three independent experiments and the averages were presented relative to actin. Representative blots (order in lanes from left to right: vector, WBP2, Y192-231E, Y192F) were presented as insets to the bar graphs. **P<0.01, ***P<0.001, Student's t-test (2-tailed) relative to vector. Vector, WBP2-WT, WBP2-Y192-231E mutant or WBP2-Y192-231F mutant-expressing MCF7 were cotransfected with TOPFlash(C) or ERE-Luciferase(D) reporter construct. For cells co-transfected ERE luciferase, they were either left alone or stimulated with 50 ng/ml Wnt3a ligand for 16 hrs. TCF(C)/ER[…](D) luciferase activities in various conditions were then assayed and analyzed in relative to untreated vector control. **P<0.01, ***P<0.001, Student's t-test (2-tailed). E: Vector or WBP2-Y192-231E mutant-expressing MCF7 were treated with indicated concentrations of 2 µM tamoxifen (Tam) and/or 15 µM FH535 for 4 days. Cell numbers were measured daily and compared in relative to vehicle treated vector-expressing cells on Day 0. F: Vector or WBP2-Y192-231E mutant-expressing MCF7 were treated with indicated concentrations (0-50 µM) of FH535 for 2 days. Cell numbers were measured and compared in relative to vehicle-treated cells. Their […] were analyzed statistically with SPSS 13.0. G: Whole cell lysates from WBP2-Y192-231E mutant-expressing MCF7 treated with 2 μM Tam and/or 15 μM FH5353 were harvested at day 2-4 post-treatment and used for IB analysis with antibodies indicated. H: Vector or WBP2-Y192-231E mutant-expressing MCF7 were treated with indicated concentrations of 100 nM fulvestrant and/or 15 µM FH535 for 4 days. Cell numbers were measured on day 2 and day 4 and compared in relative to vehicle-treated control at each day (Top Panel). These treated cells were harvested for IB analysis with antibodies indicated (Bottom Panel). […]

## Cc1cc([N+](=O)[O-])ccc1NS(=O)(=O)c1cc(Cl)ccc1Cl [FH535]
ERα
  ERα expression: significantly reduced; also recorded: reducing
[1]
  blocking of phospho-WBP2-mediated cancer cell growth compared with tamoxifen and fulvestrant: more pronouncedly
[1]; 0-50 μM FH535 for 2 days
  sensitivity of Y192-231E-expressing MCF7 to FH535-mediated growth inhibition compared with vector-expressing MCF7: more sensitive
[1]; MCF7 cells expressing Y192-231E mutant, day 4, 100 nM fulvestrant or 15 μM FH535
  inhibition of growth / reduction of proliferation: ~65%
[1]; Y192-231E stable transfectant, 0-50 μM FH535 for 2 days
  growth inhibition, dose dependence: dose dependent growth inhibition
[1]; Y192-231E-expressing MCF7, FH535 alone (15 μM), to close to vector-expressing MCF7 at day 3
  growth rate: significantly reduced
